Experimental data published in patent US8222263B2, “Inhibitors of hedgehog pathway” (Exelixis Patent Company LLC, priority 2007, dated 2012).
pIC50: −log10 of the molar value.

Test system: Gli-luciferase (firefly) reporter in SHh Light II cell line (NIH-3T3), Hedgehog pathway
Assay: Light II Assay (SHh-Smo cell-based Gli-luciferase reporter assay)
Conditions: rSHh stimulated cells, 24 hours, % inhibition of luciferase signal
Protocol: The SHh-Smo assay is a cell-based reporter assay in the SHh Light II cell line (NIH-3T3), available through the American Tissue Culture Center (ATCC). […] In addition, this cell line contains a constitutively expressed renilla luciferase reporter (via CMV promoter) which can be used as a readout to detect any non-specific compound effects, including cytotoxicity.
Test compounds were serially diluted in DMSO and 1.5 μL aliquots were transferred to 384-well non-binding plates. Compounds were diluted with 85 μL of assay media (DMEM+0.5% FBS, 5 mM Hepes, 1% NEAA, 1% PenStrep, 0.8% Geneticin). Cell plates were prepared by adding 50 μL of assay media (240 cells/μL) to white TC coated 384-well plates (final cell concentration is 12,000 cells/well). Cell plates were incubated overnight at 37° C.
Media was removed from the cell plates and 30 μL of compound in assay media+rSHh (1.5 μg/well) was added to the cell plates. Plates were incubated at 37° C. for 24 hours. Following overnight incubation, media was aspirated from the cell plates and 20 μL of luciferase media (Bright-glo, Promega) was added to the cell. Cells were incubated for 5 minutes and measured on an Envision™ plate reader (Perkn Elmer) using the luciferase detection protocol. IC50 values were calculated as a percentage inhibition of luciferase signal from rSHh stimulated cells compared to unstimulated cells.

| SMILES | pIC50 |
| --- | --- |
| Cc1cccc(C)c1NC(=O)c1cc(Nc2nc(-c3ccccc3)c3ccccc3n2)c(Cl)s1 [5-chloro-N-(2,6-dimethylphenyl)-4-[(4-phenylquinazolin-2-yl)amino]thiophene-2-carboxamide] | 6.78 |
| CN(C)Cc1cccc(NC(=O)c2ccc(Nc3nc(-c4ccccc4)c4ccccc4n3)cc2)c1 [N-{3-[(dimethylamino)methyl]phenyl}-4-[(4-phenylquinazolin-2-yl)amino]benzamide] | 8.21 |
| Cc1cccc(C)c1NC(=O)c1ccc(Nc2nc3c(c(-c4ccccc4)n2)CCC3)cc1 [N-(2,6-dimethylphenyl)-4-[(4-phenyl-6,7-dihydro-5H-cyclopenta[d]pyrimidin-2-yl)amino]benzamide] | 7.59 |
| Cc1ccc(CN2CCOCC2)cc1NC(=O)c1ccc(Nc2nc(C(C)C)c3ccccc3n2)cc1 [4-{[4-(1-methylethyl)quinazolin-2-yl]amino}-N-[2-methyl-5-(morpholin-4-ylmethyl)phenyl]benzamide] | 7.75 |
| Cc1ccc(C(=O)NCCN(C)C)cc1NC(=O)c1ccc(Nc2nc(-c3ccccc3)c3ccccc3n2)cc1 [N-[2-(dimethylamino)ethyl]-4-methyl-3-[({4-[(4-phenylquinazolin-2-yl)amino]phenyl}carbonyl)amino]benzamide] | 7.79 |
| CN1CCc2ccc(NC(=O)c3ccc(Nc4nc(-c5ccccc5)c5ccccc5n4)cc3)cc2C1 [N-(2-methyl-1,2,3,4-tetrahydroisoquinolin-7-yl)-4-[(4-phenylquinazolin-2-yl)amino]benzamide] | 8.24 |
| Cc1cccc(C)c1NC(=O)c1ccc(Nc2nc(C3CC3)c3ccccc3n2)cc1 [4-[(4-cyclopropylquinazolin-2-yl)amino]-N-(2,6-dimethylphenyl)benzamide] | 8.55 |
| Cc1ccc(CN2CCOCC2)cc1NC(=O)c1ccc(Nc2nc(-c3ccccc3)c3ccccc3n2)c(F)c1 [3-fluoro-N-[2-methyl-5-(morpholin-4-ylmethyl)phenyl]-4-[(4-phenylquinazolin-2-yl)amino]benzamide] | 8.21 |
| Cc1ccc(-c2ccn[nH]2)cc1NC(=O)c1ccc(Nc2nc(-c3ccccc3)c3ccccc3n2)cc1 [N-[2-methyl-5-(1H-pyrazol-5-yl)phenyl]-4-[(4-phenylquinazolin-2-yl)amino]benzamide] | 8.20 |
| Cc1ccc(OCCN2CCOCC2)cc1NC(=O)c1ccc(Nc2nc(-c3ccccc3)c3ccccc3n2)cc1 [N-{2-methyl-5-[(2-morpholin-4-ylethyl)oxy]phenyl}-4-[(4-phenylquinazolin-2-yl)amino]benzamide] | 8.21 |
| Cc1cccc(C)c1NC(=O)c1ccc(Nc2nc(-c3ccccc3)c3cccnc3n2)cc1 [N-(2,6-dimethylphenyl)-4-[(4-phenylpyrido[2,3-d]pyrimidin-2-yl)amino]benzamide] | 8.44 |
| Cc1ccc(CN(C)Cc2ccccc2)cc1NC(=O)c1ccc(Nc2nc(C)c3ccccc3n2)cc1 [N-(2-methyl-5-{[methyl(phenylmethyl)amino]methyl}phenyl)-4-[(4-methylquinazolin-2-yl)amino]benzamide] | 8.47 |
| Cc1cccc(C)c1NC(=O)c1ccc(Nc2nc3c(c(-c4ccccc4)n2)CN(Cc2ccccc2)CC3)cc1 [N-(2,6-dimethylphenyl)-4-{[4-phenyl-6-(phenylmethyl)-5,6,7,8-tetrahydropyrido[4,3-d]pyrimidin-2-yl]amino}benzamide] | 6.81 |
| CCN1CCN(C(=O)c2ccc(C)c(NC(=O)c3ccc(Nc4nc(-c5ccccc5)c5ccccc5n4)cc3)c2)CC1 [N-{5-[(4-ethylpiperazin-1-yl)carbonyl]-2-methylphenyl}-4-[(4-phenylquinazolin-2-yl)amino]benzamide] | 7.62 |
| Cc1ccc(CN(C)C)cc1NC(=O)c1ccc(Nc2nc(-c3cccs3)c3ccccc3n2)cc1 [N-{5-[(dimethylamino)methyl]-2-methylphenyl}-4-{[4-(2-thienyl)quinazolin-2-yl]amino}benzamide] | 7.68 |
| O=C(c1ccccc1)N1CCC(Nc2nc(-c3ccccc3)c3ccccc3n2)CC1 [4-phenyl-N-[1-(phenylcarbonyl)piperidin-4-yl]quinazolin-2-amine] | 7.16 |
